A short description of series [1]: Encapsulation efficiency of RNA (QUANT-IT RIBOGREEN RNA assay). In kind it is physicochemical. The gist of the method: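 RiboGreen fluorescence (ex ~480, em ~520 nm) measured after 15 min at 37 °C on samples at ~5 μg/mL in TE, pH 7.5, ± 2% Triton X-100 solution. After blank subtraction, free RNA is given as intact-sample signal divided by disrupted-sample signal.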

Series [2] deals with hEPO mRNA expression. The series is described as follows: Expression of hEPO in CD-1 mice. In kind it is in vivo. To be noted: Table 7e; hEPO expression, CD-1 mice, 0.5 mpk. From the text: FIG. 12 is a set of graphs illustrating hEPO expression levels in CD-1 mice dosed with compounds of the disclosure, compared to MC3. PBS is used as control. […] In graphs A-C numbers 1-14 refer to compositions containing the following: 1: Compound 73, 2: Compound 80, 3: Compound 70; 4: Compound 81; 5: Compound 69; 6: Compound 82; 7: Compound 83; 8: Compound 62; 9: Compound 84; 10: Compound 85; 11: Compound 86; 12: Compound 87; 13: MC3; 14: PBS.
FIG. 13 is a graph showing hEPO levels (pg/mL) in CD-1 mice up to ˜25 h after administration of a nanoparticle composition containing compounds of the disclosure, compared to a composition containing MC3. Numbers 1-13 refer to compositions containing the following: 1: Compound 73, 2: Compound 80, 3: Compound 70; 4: Compound 81; 5: Compound 69; 6: Compound 82; 7: Compound 83; 8: Compound 62; 9: Compound 84; 10: Compound 85; 11: Compound 86; 12: Compound 87; 13: MC3. […]

Series [3] can be described thus: Particle size and polydispersity index of nanoparticle compositions (Zetasizer Nano ZS). The series is classed as physicochemical. The gist of the method:
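Zetasizer Nano ZS; samples in 1×PBS; read-out: particle size plus polydispersity index.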

The subject of series [4] is modified luciferase expression. The series is described as follows: Expression of Luc in different organs (liver, lung, spleen, femur) 6 hours after intravenous administration. The series is classed as in vivo. To be noted: Table 3, mice, i.v., 0.5 mpk. On the procedure: The efficacy of the nanoparticle compositions presented in Tables 1, 1a, 17-1, 19-1, 20-1 and 21-1 was further evaluated by measuring the expression of modified luciferase in the liver, lung, spleen, and femur upon administration of a given composition. Formulations were administered intravenously to mice (n=3) at a dosage of 0.5 mpk and bioluminescence measured after 6 hours. The standard MC3 formulation and a PBS control were also tested.

The nature of series [5]: Lipid levels in liver and spleen 48 hours after administration. The series is classed as in vivo, rats. To be noted: rat liver, 48 h. On the procedure:
Formulations were administered intravenously to rats (n=3 or 6) at a dosage of 0.2 mg/kg or 0.5 mg/kg (mpk) and hEPO levels measured at 3, 6, and 24 hour time points. After the 48 hour time point, livers and spleens were harvested and frozen.
The amount of lipid in the liver and spleen 48 hours after administration of a nanoparticle composition was also measured. […] In contrast, approximately 60% of doses including MC3 or Compound 22 remained in the liver after 48 hours. Less than 3% of the dose remained in the spleen for each composition tested.

Series [6] is described as follows: pKa of nanoparticle compositions. The settings on record: Table 1; rows without footnote mark. In kind it is physicochemical.
Series [7] has as its system luciferase (Luc) mRNA expression. In words: Expression of Luc induced by sample formulations, whole-body bioluminescence after intravenous administration. In kind it is in vivo. To be noted: Table 2; mice, i.v., 0.5 mg/kg, 6 hours. The gist of the method:
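Read-out is whole-body bioluminescence at 3, 6 and 24 h after a single intravenous dose of 0.5 mg/kg Luc mRNA in nanoparticle formulations. Groups of n=6 mice; PBS and standard MC3 formulation as references.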

Series [8] has as its system hEPO mRNA expression. The series is described as follows: Expression of hEPO in rats after intravenous administration. In kind it is in vivo. To be noted: hEPO expression in S.D. rats; for AUC/MC3 0.1 mpk / AUC/MC3 1 mpk: relative to MC3. As for the experimental part:
PBS (phosphate buffered saline) is used as control.
Formulations were prepared according to Table 5 and included mRNA encoding hEPO.
[…] After the 48 hour time point, livers and spleens were harvested and frozen.

The nature of series [9]: Lipid clearance: % dose remaining in mouse liver 6 h and 24 h after administration of nanoparticle compositions. In kind it is in vivo, CD-1 mice. From the text: In contrast, hEPO expression in rats induced by administration of a nanoparticle composition including a compound according to one of formulae (I), (Ia1)-(Ia6), (Ib), (II), (IIa), (III), and (IIIa) was substantially […] than that measured for MC3. […] Table 7c and 7d show additional protein expressions and clearance data from compositions with various compounds disclosed herein as compared to with MC3.

The mark [10] stands for this setting: Table 1, rows without footnote mark.
Where [11] appears, read: Table 1, rows without footnote mark (lipid:DOPE:cholesterol:PEG-DMG 40:20:38.5:1.5, Luc mRNA; MC3 standard formulation).

One may read the pKa as the negative logarithm of the acid dissociation constant.

Turning to `CCCCCCCCCN(CCCC(=O)OCCCCC)CCC1CCCN(C(=O)CN(CCCCCCCCC)CCN(CCCCCCCCC)CCCCCCCCC)C1` (stereo not drawn) [Compound 80, Pentyl 4-((2-(1-(N-(2-(dinonylamino)ethyl)-N-nonylglycyl)piperidin-3-yl)ethyl)(nonyl)amino)butanoate], in [1] (Table 1b), the “EE (%)” value worked out at 98.93%. Further, the “AUC (p/s*h) CD-1 mice 0.5 mpk” value in [2] is recorded as 6.24E+7 p/s*h. In [3] (Table 1b), the PDI was found to be 0.2 and the “Size (nm)” value came out at 65.8 nm.

For `CCCCCCCCCN(CCCC(=O)OCCCCC)CCCC1CCN(C(=O)CCN(CCCCCCCCC)CCN(CCCCCCCCC)CCCCCCCCC)CC1` [Compound 84, Pentyl 4-((3-(1-(3-((2-(dinonylamino)ethyl)(nonyl)amino)propanoyl)piperidin-4-yl)propyl)(nonyl)amino)butanoate], in [1] (Table 1b), the “EE (%)” value stood at 98.48%. Also, in [2], the “AUC (p/s*h) CD-1 mice 0.5 mpk” value was found to be 5.10E+7 p/s*h. Also, in series [3] (Table 1b), the PDI is 0.19 and the “Size (nm)” value turned out to be 68.6 nm.

In the case of `CCCCCCCCCN(CCCCCCCCC)CCCC1CCN(C(=O)CCN(CCCCCCCCC)CCN(CCCCCCCCC)CCCCCCCCC)CC1` [Compound 85, 3-((2-(Dinonylamino)ethyl)(nonyl)amino)-1-(4-(3-(dinonylamino)propyl)piperidin-1-yl)propan-1-one], the “EE (%)” value in series [1] (Table 1b) stood at 99.18%. Besides, the “AUC (p/s*h) CD-1 mice 0.5 mpk” value in series [2] is recorded as 1.27E+8 p/s*h. In addition, in series [3] (Table 1b), the PDI stood at 0.24 and the “Size (nm)” value is reported as 69.9 nm.

Turning to `CCCCCCCCCN(CCCOC(=O)CCCCC)CCCC1CCN(C(=O)CCN(CCCCCCCCC)CCN(CCCCCCCCC)CCCCCCCCC)CC1` [Compound 87, 3-((3-(1-(3-((2-(Dinonylamino)ethyl)(nonyl)amino)propanoyl)piperidin-4-yl)propyl)(nonyl)amino)propyl Hexanoate], in [1] (Table 1b), the “EE (%)” value is reported as 98.67%. The “AUC (p/s*h) CD-1 mice 0.5 mpk” value in series [2] was found to be 2.86E+7 p/s*h. Also, in series [3] (Table 1b), the PDI turned out to be 0.21 and the “Size (nm)” value is 80.9 nm.

Regarding `CCCCCCCCCN(CCCC(=O)OCCCCC)CCC1CCN(C(=O)CN(CCCCCCCCC)CCN(CCCCCCCCC)CCCCCCCCC)CC1` [Compound 83, Pentyl 4-((2-(1-(N-(2-(dinonylamino)ethyl)-N-nonylglycyl)piperidin-4-yl)ethyl)(nonyl)amino)butanoate], in series [1] (Table 1b), the “EE (%)” value is reported as 99.12%. In addition, the “AUC (p/s*h) CD-1 mice 0.5 mpk” value in series [2] worked out at 5.21E+7 p/s*h. Besides, in series [3] (Table 1b), the PDI is 0.22 and the “Size (nm)” value is given as 73.2 nm.

Consider `CCCCCCCCCN(CCCCCCCCC)CCN(CCCCCCCCC)CC(=O)N1CCC(CN(CCCCCCCCC)CCCCCCCCC)C1` (stereo not drawn) [Compound 70, 2-((2-(Dinonylamino)ethyl)(nonyl)amino)-1-(3-((dinonylamino)methyl)pyrrolidin-1-yl)ethan-1-one], for which, in series [1] (Table 1b), the “EE (%)” value turned out to be 99.14%. The “AUC (p/s*h) CD-1 mice 0.5 mpk” value in [2] is 6.34E+7 p/s*h. In addition, in [3] (Table 1b), the PDI came to 0.24 and the “Size (nm)” value was 79.8 nm.

Take `CCCCCCCCCN(CCCOC(=O)CCCCC)CCC(=O)N1CCN(C(=O)CCN(CCCCCCCCC)CCN(CCCCCCCCC)CCCCCCCCC)CC1` [Compound 86, 3-((3-(4-(3-((2-(Dinonylamino)ethyl)(nonyl)amino)propanoyl)piperazin-1-yl)-3-oxopropyl)(nonyl)amino)propyl Hexanoate]: in [1] (Table 1b), the “EE (%)” value is recorded as 97.42%. Besides, the “AUC (p/s*h) CD-1 mice 0.5 mpk” value in series [2] is on record as 1.75E+7 p/s*h. For the same compound, in [3] (Table 1b), the PDI is 0.14 and the “Size (nm)” value is 53.6 nm.

Consider `CCCCCCCCCN(CCCCCCCCC)CCC1CCN(C(=O)CN(CCCCCCCCC)CCN(CCCCCCCCC)CCCCCCCCC)C1` (stereo not drawn) [Compound 69, 2-((2-(Dinonylamino)ethyl)(nonyl)amino)-1-(3-(2-(dinonylamino)ethyl)pyrrolidin-1-yl)ethan-1-one], for which, in [1] (Table 1b), the “EE (%)” value worked out at 99.31%. The “AUC (p/s*h) CD-1 mice 0.5 mpk” value in series [2] is listed as 2.33E+8 p/s*h. Also, in [3] (Table 1b), the PDI was found to be 0.24 and the “Size (nm)” value was found to be 74.4 nm.

In the case of `CCCCCCCCCN(CCCCCCCCC)CCC1CCCN(C(=O)CN(CCCCCCCCC)CCN(CCCCCCCCC)CCCCCCCCC)C1` (stereo not drawn) [Compound 73, 2-((2-(Dinonylamino)ethyl)(nonyl)amino)-1-(3-(2-(dinonylamino)ethyl)piperidin-1-yl)ethan-1-one], the “EE (%)” value in series [1] (Table 1b) amounted to 98.85%. In addition, in series [2], the “AUC (p/s*h) CD-1 mice 0.5 mpk” value is 1.41E+8 p/s*h. Moreover, in series [3] (Table 1b), the PDI is 0.25 and the “Size (nm)” value is on record as 84.3 nm.

On to `CCCCCCCCCN(CCCCCCCCC)CCC1CCN(C(=O)CN(CCCCCCCCC)CCN(CCCCCCCCC)CCCCCCCCC)CC1` [Compound 49, 2-((2-(Dinonylamino)ethyl)(nonyl)amino)-1-(4-(2-(dinonylamino)ethyl)piperidin-1-yl)ethan-1-one], for which the “EE (%)” value in series [1] (setting [10]) stood at 98.8%. Besides, in series [4], the “Total Flux Liver” value was 1.21E+10 and the “Total Flux Spleen” value is reported as 6.65E+07. The PDI in series [3] (setting [10]) is 0.200. In addition, the “Size (nm)” value in [3] (setting [11]) amounted to 95.8 nm. Further, the “% dose remainng Rat liver (48 h)” value in [5] was 38.45%. Further, the pKa in series [6] is on record as 6.4. Moreover, the “Total Flux 6 hours” value in [7] is given as 5.67E+10. In series [8], the “AUC (0.1 mpk)” value is 5.98E+06, the “AUC/MC3 0.1 mpk” value stood at 3.7, the “AUC (1 mpk)” value was 1.44E+08 and the “AUC/MC3 1 mpk” value was 1.2. Also, in [9], the “% Dose remaining 6 h CD-1 mice” value was 49%, the “% Dose remaining 24 h CD-1 mice” value was 40% and the “% dose remaining Mouse liver (24 h)” value turned out to be 40.3%.

Turning to `CCCCCCCCCN(CCCCCCCCC)CCN(CCCCCCCCC)CC(=O)N1CCN(C(=O)CN(CCCCCCCCC)CCCC(=O)OCCCCC)CC1` [Compound 45, Pentyl 4-((2-(4-(N-(2-(dinonylamino)ethyl)-N-nonylglycyl)piperazin-1-yl)-2-oxoethyl)(nonyl)amino)butanoate], the “EE (%)” value in series [1] (setting [10]) is 94.9%. For the same compound, in series [4], the “Total Flux Liver” value is reported as 7.87E+09 and the “Total Flux Spleen” value is recorded as 1.70E+08. This compound returned a PDI in series [3] (setting [10]) of 0.200. Besides, the “Size (nm)” value in [3] (setting [11]) is 100.2 nm. In addition, the “% dose remainng Rat liver (48 h)” value in series [5] was found to be 8.57%. In addition, the pKa in series [6] came out at 6.77. Moreover, the “Total Flux 6 hours” value in series [7] is recorded as 7.86E+10. In addition, in [8], the “AUC (0.1 mpk)” value is 1.45E+06, the “AUC/MC3 0.1 mpk” value worked out at 0.90, the “AUC (1 mpk)” value is on record as 2.00E+08 and the “AUC/MC3 1 mpk” value stood at 1.7. In [9], the “% Dose remaining 6 h CD-1 mice” value stood at 33%, the “% Dose remaining 24 h CD-1 mice” value came to 24% and the “% dose remaining Mouse liver (24 h)” value is on record as 23.7%.

Consider `CCCCCCCCCN(CCCCCCCCC)CCN(CCCCCCCC(=O)OC)CC(=O)N1CCN(C(=O)CN(CCCCCCCCC)CCCCCCCCC)CC1` [Compound 47, Methyl 8-((2-(dinonylamino)ethyl)(2-(4-(dinonylglycyl)piperazin-1-yl)-2-oxoethyl)amino)octanoate], for which the “EE (%)” value in series [1] (setting [10]) turned out to be 53.1%. In series [4], the “Total Flux Liver” value came out at 4.95E+08 and the “Total Flux Spleen” value amounted to 1.42E+08. In [3] (setting [10]), this compound displayed a PDI of 0.180. Further, the “Size (nm)” value in series [3] (setting [11]) is on record as 89.8 nm. The compound also had a pKa in series [6] of 6.82. In addition, in series [7], the “Total Flux 6 hours” value worked out at 2.64E+09. In series [9], the “% Dose remaining 6 h CD-1 mice” value was determined as 1% and the “% Dose remaining 24 h CD-1 mice” value is under 1%.
